Assay results as given in patent US20260041620A1, “NOVEL AMINO ACID BASED SALTS, COMPOSITIONS AND METHODS FOR TREATING SKIN AND IMPROVING SKIN REJUVENATION AND LONGEVITY” (Sytheon Ltd, priority 2023, published 2026).
Like-named read-outs stand apart in the source and are kept apart here.

Columns and labels:
FAAH = target: T1, FAAH (Homo sapiens, UniProt O00519); test: FAAH fluorescence-based inhibitory assay; type: biochemical
T1 sequence (O00519 1-579): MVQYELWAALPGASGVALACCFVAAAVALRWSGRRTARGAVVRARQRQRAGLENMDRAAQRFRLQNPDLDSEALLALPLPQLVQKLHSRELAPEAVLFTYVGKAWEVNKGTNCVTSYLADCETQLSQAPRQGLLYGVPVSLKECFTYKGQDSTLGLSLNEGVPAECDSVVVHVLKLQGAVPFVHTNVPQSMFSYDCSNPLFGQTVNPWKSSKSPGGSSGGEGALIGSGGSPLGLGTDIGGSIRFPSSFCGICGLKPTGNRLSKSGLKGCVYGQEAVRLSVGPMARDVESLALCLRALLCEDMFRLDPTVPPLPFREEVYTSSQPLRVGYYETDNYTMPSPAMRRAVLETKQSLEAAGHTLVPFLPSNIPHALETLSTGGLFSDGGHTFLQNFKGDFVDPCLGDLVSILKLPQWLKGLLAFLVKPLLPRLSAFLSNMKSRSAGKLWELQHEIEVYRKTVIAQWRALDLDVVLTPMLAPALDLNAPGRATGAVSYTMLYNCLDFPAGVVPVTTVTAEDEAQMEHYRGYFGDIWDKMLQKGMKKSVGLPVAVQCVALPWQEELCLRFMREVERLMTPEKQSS

FABP-3 = target: T2, FABP-3 (Homo sapiens, UniProt P05413); test: FABP-3 ELISA inhibitory assay; type: biochemical
T2 construct: purchased Neovateinbio PT-452

FABP-5 = target: T3, FABP-5 (Homo sapiens, UniProt Q01469); test: FABP-5 ELISA inhibitory assay; type: biochemical
T3 construct: purchased Raybiotech 268-10276-1

HDAC7 = target: T4, HDAC7 (Homo sapiens, UniProt Q8WUI4)
T4 sequence (Q8WUI4 1-952): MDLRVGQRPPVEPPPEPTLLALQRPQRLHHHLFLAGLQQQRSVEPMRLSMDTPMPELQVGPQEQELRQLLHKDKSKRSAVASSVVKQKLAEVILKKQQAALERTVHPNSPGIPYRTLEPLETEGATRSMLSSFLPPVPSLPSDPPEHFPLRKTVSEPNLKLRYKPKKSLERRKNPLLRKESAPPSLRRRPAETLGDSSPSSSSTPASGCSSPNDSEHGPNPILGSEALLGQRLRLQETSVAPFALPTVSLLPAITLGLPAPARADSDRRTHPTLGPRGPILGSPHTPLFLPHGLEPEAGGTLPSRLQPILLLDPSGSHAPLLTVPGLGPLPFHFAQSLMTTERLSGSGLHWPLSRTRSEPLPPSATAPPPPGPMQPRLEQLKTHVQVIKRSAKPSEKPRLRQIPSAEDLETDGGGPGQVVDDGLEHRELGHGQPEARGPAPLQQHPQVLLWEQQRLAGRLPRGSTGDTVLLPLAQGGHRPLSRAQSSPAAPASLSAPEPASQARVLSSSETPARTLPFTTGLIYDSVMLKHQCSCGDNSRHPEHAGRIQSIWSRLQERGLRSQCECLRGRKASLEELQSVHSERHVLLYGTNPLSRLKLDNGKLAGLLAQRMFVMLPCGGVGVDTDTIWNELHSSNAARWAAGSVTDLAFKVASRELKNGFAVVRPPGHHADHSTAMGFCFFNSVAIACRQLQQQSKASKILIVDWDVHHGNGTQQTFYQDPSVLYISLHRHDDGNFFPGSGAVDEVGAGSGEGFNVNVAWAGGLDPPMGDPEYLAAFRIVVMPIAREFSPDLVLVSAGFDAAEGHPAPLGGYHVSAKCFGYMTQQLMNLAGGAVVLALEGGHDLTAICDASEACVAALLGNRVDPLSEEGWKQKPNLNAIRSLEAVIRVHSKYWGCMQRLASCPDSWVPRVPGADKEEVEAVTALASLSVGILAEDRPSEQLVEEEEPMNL
Description: (§1) Test materials were stored at room temperature and stock solutions were prepared at 20 mg/ml in DMSO. Further dilutions were made in sterile distilled water immediately before being added to the reaction mixture containing a substrate, and the reaction was triggered by the addition of purified HDAC enzymes, Double distilled water was the negative control and trichostatin (1.5 ug/ml) was used as a positive control for validation of each study. The test procedure was as directed in the assay kits. The products of the reactions were measured by fluorometry at ex/em 350/450 nm using multi-well plate fluorometer Cytofluor 4000 (Applied Biosystem, Foster City, CA) or using SpectraMax i3× Multi-Mode Detection Platform from Molecular Devices (Sunnyvale, CA).
(§2) Statistical significance was assessed with a two-tail Student test. Deviations of ≤20% as compared to water control with p values below 0.05 were considered statistically significant.

HDAC 8 = target: T5, HDAC 8 (Homo sapiens, UniProt Q9BY41)
T5 sequence (Q9BY41 1-377): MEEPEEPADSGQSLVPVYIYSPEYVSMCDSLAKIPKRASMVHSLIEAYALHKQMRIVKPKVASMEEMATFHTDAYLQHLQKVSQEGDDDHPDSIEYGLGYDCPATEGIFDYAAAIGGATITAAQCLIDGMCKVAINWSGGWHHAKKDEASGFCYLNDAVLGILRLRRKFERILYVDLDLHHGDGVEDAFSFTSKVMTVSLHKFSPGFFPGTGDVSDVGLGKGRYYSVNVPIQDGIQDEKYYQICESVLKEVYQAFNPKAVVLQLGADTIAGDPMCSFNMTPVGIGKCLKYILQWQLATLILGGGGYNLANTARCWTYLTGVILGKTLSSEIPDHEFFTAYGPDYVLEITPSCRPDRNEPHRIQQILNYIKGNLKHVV
Description: as §1, §2

HDAC10 = target: T6, HDAC10 (Homo sapiens, UniProt Q969S8)
T6 sequence (Q969S8 1-669): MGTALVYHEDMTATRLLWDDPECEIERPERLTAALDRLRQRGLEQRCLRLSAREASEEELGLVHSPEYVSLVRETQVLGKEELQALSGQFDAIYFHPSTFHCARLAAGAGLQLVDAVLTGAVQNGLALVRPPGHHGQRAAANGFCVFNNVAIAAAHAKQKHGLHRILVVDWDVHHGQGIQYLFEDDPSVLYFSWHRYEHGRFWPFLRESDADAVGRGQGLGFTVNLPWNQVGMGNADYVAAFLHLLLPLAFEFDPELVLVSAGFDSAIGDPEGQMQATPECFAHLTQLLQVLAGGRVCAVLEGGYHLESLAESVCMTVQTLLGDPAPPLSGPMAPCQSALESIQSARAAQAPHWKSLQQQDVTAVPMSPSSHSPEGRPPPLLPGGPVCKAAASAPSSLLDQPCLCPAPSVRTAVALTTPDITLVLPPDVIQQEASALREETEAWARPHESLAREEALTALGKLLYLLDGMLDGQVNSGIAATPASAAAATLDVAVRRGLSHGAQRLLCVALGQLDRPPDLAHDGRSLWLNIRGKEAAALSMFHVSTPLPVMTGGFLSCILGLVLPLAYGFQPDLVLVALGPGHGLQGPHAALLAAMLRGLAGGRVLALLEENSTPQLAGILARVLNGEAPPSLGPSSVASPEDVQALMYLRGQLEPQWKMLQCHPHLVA
Description: as §1, §2

T3 sequence (Q01469 whole entry): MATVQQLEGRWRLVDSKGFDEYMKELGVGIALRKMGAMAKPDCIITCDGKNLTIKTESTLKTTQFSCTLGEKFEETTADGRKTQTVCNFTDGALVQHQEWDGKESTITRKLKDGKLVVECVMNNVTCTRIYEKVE
T2 sequence (P05413 whole entry): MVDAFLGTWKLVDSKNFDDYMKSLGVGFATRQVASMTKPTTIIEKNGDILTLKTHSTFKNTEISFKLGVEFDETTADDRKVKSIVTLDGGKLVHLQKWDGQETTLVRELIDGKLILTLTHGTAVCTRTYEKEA

| Molecule | FAAH IC50 (FAAH) | FABP-3 IC50 (FABP-3) | FABP-5 IC50 (FABP-5) | HDAC 7 activity, % of water-treated controls (HDAC7; 5 ug/ml) | HDAC 7 activity, % of water-treated controls (HDAC7; 25 ug/ml) | HDAC 7 activity, % of water-treated controls (HDAC7; 50 ug/ml) | HDAC 7 activity, % of water-treated controls (HDAC7; 100 ug/ml) | HDAC 7 activity, % of water-treated controls (HDAC7; 200 ug/ml) | HDAC 8 activity, % of water-treated controls (HDAC 8; 5 ug/ml) | HDAC 8 activity, % of water-treated controls (HDAC 8; 25 ug/ml) | HDAC 8 activity, % of water-treated controls (HDAC 8; 50 ug/ml) | HDAC 8 activity, % of water-treated controls (HDAC 8; 100 ug/ml) | HDAC 8 activity, % of water-treated controls (HDAC 8; 200 ug/ml) | HDAC 10 activity, % of water-treated controls (HDAC10; 5 ug/ml) | HDAC 10 activity, % of water-treated controls (HDAC10; 25 ug/ml) | HDAC 10 activity, % of water-treated controls (HDAC10; 50 ug/ml) | HDAC 10 activity, % of water-treated controls (HDAC10; 100 ug/ml) | HDAC 10 activity, % of water-treated controls (HDAC10; 200 ug/ml) | further results |
| --- | --- | --- | --- | --- | --- | --- | --- | --- | --- | --- | --- | --- | --- | --- | --- | --- | --- | --- | --- |
| CCCC(=O)NCCCC[C@H](NC(=O)CCC)C(=O)[O-].CCCC(=O)NCCCC[C@H](NC(=O)CCC)C(=O)[O-].[Zn+2] [Zn di-(di-n-butyryl lysinate), Zinc di-(di-n-butyryl lysinate)] | 368.7 µg/mL | 242.4 µg/mL | 644 µg/mL | 56% | 28% | 15% | 9% | 9% | 15% | 15% | 15% | 13% | 17% | 21% | 15% | 13% | 9% | 7% |  |
| CCCC(=O)NCCCCC(NC(=O)CCC)C(=O)[O-].CCCC(=O)NCCCCC(NC(=O)CCC)C(=O)[O-].[Ca+2] (stereo not drawn) [Ca di-(di-n-butyryl lysinate), calcium di-(di-n-butyryl lysinate)] | 213.6 µg/mL | 188.6 µg/mL | 786 µg/mL |  | 101% | 99% | 99% | 97% | 91% | 148% | 174% | 155% | 111% |  | 105% | 103% | 104% | 90% |  |
| CCCC(=O)N[C@@H](CC(C)C)C(=O)[O-].CCCC(=O)N[C@@H](CC(C)C)C(=O)[O-].[Zn+2] [Zn di-(n-butyryl leucinate), Zinc di-(n-butyryl leucinate)] | 41.3 µg/mL | 630.9 µg/mL | 390.5 µg/mL | 41% | 18% | 11% | 9% | 9% | 7% | 16% | 16% | 16% | 14% | 21% | 13% | 10% | 8% | 6% |  |
| CCCC(=O)[O-].[Na+] [Sodium butyrate, reference compound] |  |  |  |  |  | 96% | 94% | 87% |  |  | 25% | 20% | 20% |  |  | 100% | 103% | 93% | IC50 (FAAH): 7.31 mM; HDAC 7 activity, % of water-treated controls (HDAC7; 400 ug/ml): 91%; HDAC 8 activity, % of water-treated controls (HDAC 8; 400 ug/ml): 14%; HDAC 10 activity, % of water-treated controls (HDAC10; 400 ug/ml): 61% |
| Zinc Di-lysinate [Zn dilysinate] | 791.8 µg/mL | 255.2 µg/mL | 3,014 μg/ml |  | 30% | 18% | 10% | 10% | 13% | 13% | 14% | 13% | 12% |  | 19% | 12% | 9% | 6% |  |
